Results taken from patent US20110311601A1, “ANTIMICROBIAL MEDICAL DEVICES” (priority 2010, published 2011).
Where no end group is shown, it is not given here.

Test system: Escherichia coli strain DB3.1
Experiment: micro-dilution assay of coated titanium pins and peptide controls (bacterial killing, CFU)
Format: cell-based
Experimental: In a first experiment 10 μg of hβD2 was coated to three different SAM Hexadecyltrimethoxysilane (SAM 1), Dimethoxymethyloctylsilane (SAM 2), and oxidized Allyltrimethoxysilane (SAM 3) of the modified titanium pins. The anti-bacterial activity of the hβD2-coated pins was tested by a micro-dilution assay. Therefore, Escherichia coli strain DB3.1 (Invitrogen, Cat. No. 11782-018) was used. E. coli was streaked from a glycerol stock onto a Brain Heart Infusion (BHI) agar plate (3.7% (w/v) BHI Bouillon, 1.5% (w/v) Agar), grown overnight at 37° C. and subsequently used to inoculate 40 ml of 3.7% (w/v) BHI Bouillon without any antibiotics in 100 ml flasks. Fresh cells were harvested by centrifugation at 16000 rpm for 10 min and washed twice with 10 mM sodium phosphate buffer, pH 7.2. The optical density was adjusted to 10^4 cells/ml. For anti-bacterial testing, a single pin coated with hβD2 was incubated in one well of a microtiter plate containing 100 μl of the bacterial suspension.
Functionalized titanium pins without hβD2 served as negative controls (SAM1-n, SAM2-n, SAM3-n, SAM4::Col-NHS-n, SAM4::Col-Glu-n). In addition, 5 independent control reactions consisting of hβD2 in a final amount of 0 (NC), 0.02 (PC1), 0.2 (PC2), 2 (PC3) and 10 (PC4) μg were examined in parallel. To determine the specificity of the anti-bacterial activity of hβD2, 10 μl (10 μg/ml in PBS) of polyclonal monospecific anti-hβD2 antibodies were co-incubated with 10 μg of hβD2 and bacterial cells (Table I, PC4/ab).
The microtiter plates were incubated for 2 h at 37° C. The kinetic studies were performed by replacing the bacterial suspension, after 2 h of cultivation with a freshly pre-cultured E. coli solution, which contained the same bacterial concentration, and cultivating for another 2 h and so on. Colony forming units (CFU) were determined after plating 100 μl of a 1:100 dilution of the bacterial suspension on petri dishes with BHI medium and incubating them overnight at 37° C. For every group of the functionalized titanium pins and the controls, 5 independent anti-bacterial assays were performed. A control (NC) of bacterial growth was examined for every independent assay. The number of CFU on the control (consisting of a single petri dish) was set to 0% bactericidal activity. The reduction in the CFU resulting from the anti-bacterial activity of hβD2 was related to the absolute CFU of the control within every independent assay. This value, given as a percentage of the bacterial “killing” activity, was used to describe the antibacterial activity. This kind of normalisation of the antibacterial data was performed for every experimental group.
To examine the release behavior of hβD2 that is adsorbed by different SAM modified titanium pins a time kinetic experiment was performed. The experiment was performed analogous to Example 2. For this experiment 80 μg of hβD2 was adsorbed to three different SAMs Hexadecyltrimethoxysilane (SAM1), Dimethoxymethyloctylsilane (SAM2), and oxidized Allyltrimethoxysilane (SAM3) of the modified titanium pins.
Since it is known that collagen has a positive impact on wound healing, functionalised titanium pins with collagen were investigated. Two different cross-linking strategies for collagen on SAM3 and SAM4 were applied as described in Example 1: (i) a covalently binding strategy with the NHS/EDC cross-linking system, and (ii) the use of glutaraldehyde. Successful binding of collagen was monitored by collagen-specific DirectRed staining (as described in Example 1). […] Additionally 80 μg hβD2 was adsorbed to collagen functionalized SAM3 and SAM4 modified titanium pins, respectively. For monitoring the antibacterial activity of the bio-coated pins the experiment was performed analogous to Example 3. […]

For “human β-defensin-2 (GIGDPVTCLKSGAICHPVFCPRRYKQIGTCGLPGTKCCKKP; ends and bridges not checked; cysteine pairing not given here) [hβD2, recombinant hβD2]”, the “antmicrobial activity, bacterial killing [%]” value (“antmicrobial activity … [%]” for short) (control PC1: 0.02 μg rHuβD2, 2 h) was 14.80 ± 2.78%, the “antmicrobial activity … [%]” value (control PC2: 0.20 μg rHuβD2, 2 h) was 32.38 ± 2.93% and the “antmicrobial activity … [%]” value (control PC3: 2.00 μg rHuβD2, 2 h) was 92.80 ± 3.91%. The “antmicrobial activity … [%]” value (control PC4/ab: 10.00 μg rHuβD2 co-incubated with polyclonal anti-hβD2 antibodies, 2 h) was 0% and the “antmicrobial activity … [%]” value (control PC4: 10.00 μg rHuβD2, 2 h) was 100%.
